According to patent publication US20210388012A1, “METHODS AND COMPOSITIONS FOR PRODRUG FORMS OF SPECTINOMYCIN AND SPECTINAMIDE ANALOGS” (priority 2018, published 2021):

Tests used:
[1] = PlasmaLyte A stability study; type: physicochemical; details: room temperature; for % remaining: 10 mg/mL in PlasmaLyte A and milli-Q water (50:50)
Procedure: LC-MS Method 1. Quantitative determination of the amount of a disclosed compound present in blood, plasma, or urinary can be determined by LC-MS/MS methods. Briefly, a suitable method involves use of calibrants (0.976, 1.95, 3.91, 7.81, 15.63, 31.25, 62.5, 125, 250, 500, 1000 ng/mL) were in sample matrix (e.g., rat plasma, blood or urine). A separate solution of disclosed compound (independent of calibrants) is used to prepare quality controls. Appropriate volumes of working solutions are added to the sample matrix to yield the final concentrations of 1, 50, 1000 ng/mL. Linearity for calibrants in duplicate is assessed by subjecting the spiked concentrations and the respective peak areas to least-square linear regression analysis with and without intercepts, and a weighted least-square regression (1/x or 1/x^2). The lowest limit of quantitation (LLOQ) in the standard curve measured with acceptable accuracy and precision for a disclosed compound from rat plasma has been previously established as 0.976 ng/mL for a representative compound, 1810. All samples are precipitated by the addition of 4-volumes (100 μL) of IS, 1369 (10 ng/mL) in methanol to a volume (25 μL) of plasma/urine test sample. The samples are vortexed (Fisher scientific, USA) for 30 sec and centrifuged at 10,000×g for 10 min at 4° C. and the supernatants are collected for LC-MS/MS analysis. Chromatographic separation is carried out using a Shimadzu Nexera XR (LC-20ADXR) liquid chromatograph (Shimadzu Corporation, USA) consisting of two pumps, online degasser, system controller and an auto sampler. Mobile phase consisting of a) water with 1.6% nonafluoropentanoic acid and 0.7% formic acid b) 90% acetonitrile with 0.8% nonafluoropentanoic acid and 0.35% formic acid can be used at a flow rate of 0.5 rnLirnin in gradient mode. A Waters® Symmetry ® 3.5μ C8, 50×2.1 mm column (Waters, Milford, Mass.) is used for the separation. Samples (5 μL) are injected on column and the eluate is provided directly to an API 5500 triple quadruple mass spectrometer (Applied Biosystems, Foster City, Calif.) equipped with a turbospray ion source operated in the positive ion mode. The optimized multiple reactions monitoring (MRM) conditions for 3408 (549.2A207.1), 1810 (469.2^207.1) and IS (418.3^207.1) are monitored with a declustering potential of 45 V and collision energy of 25 eV. Data are acquired and processed with Analyst software version 1.6.2 (Applied Biosystems, Foster City, Calif.).
Stability of compound 3408 was determined in a mixture of PlasmaLyte A and milli-Q water (50:50) at room temperature. Briefly, a 10 mg/mL solution of compound 3408 was prepared in triplicate and samples were collected (0, 1, 2, 3, 4, 5, 6 h). These samples were processed by addition of 4-volumes of methanol and quantitated by LC-MS/MS method disclosed herein in LC-MS Method 1. The percentage drug remaining at each hour was calculated with respect to the concetration at the initial time point.

[2] = in vitro; type: in vitro ADME; details: human plasma, 37° C., read-out: Plasma Stability (Human) t½ (converted)
Procedure: LC-MS Method 2. Chromatographic separation was performed on an Acquity UPLC BEH C18 1.7 μm, 2.1×50 mm column (Waters Corporation, Milford, Mass.) or a Luna Omega 1.6 μm C18, 2.1×50 mm column (Phenomenex, Torrance, Calif.) using an Acquity ultra performance liquid chromatography system. Data were acquired using Masslynx v. 4.1 and analyzed using the Openlynx software suite. This was coupled to an Acquity photodiode array detector, which acquired UV data from 210-400 nm. The flow was then split, with half directed to an evaporative light scattering detector (ELSD) and half to an SQ mass spectrometer. The total flow rate was 1 mL/min. The sample injection volume was 10 μL. The UPLC column was maintained at 60° C. and the gradient program with either basic mobile phase (A1, 10 mM ammonium bicarbonate in MilliQ H2O; B1, 0.1% formic acid in acetonitrile) or formic mobile phase (A1, 0.1% formic acid in MilliQ H2O; B1, 0.1% formic acid in acetonitrile) based on the compounds' physical and chemical properties. The mass spectrometer was operated in positive-ion mode with electrospray ionization. The conditions were as follows; capillary voltage 3.4 kV, cone voltage 30 V, source temperature 130° C., desolvation temperature 400° C., desolvation gas 800 L/hr, cone gas 100 L/hr. A full scan range from m/z=110-1000 in 0.2 s was used to acquire MS data. The ELSD-drift tube temperature was set at 52° C.
Plasma stability was determined after incubation in human plasma for various incubation time, i.e., incubation times of 0, 3, 24, and 48 hour were used. DMSO stock solutions of test compounds were prepared at 10 mM concentration. 1.8 μL of each test compound was each added directly to 1.8 mL of human plasma to get the final concentration of 10 μM. This compound/matrix was mixed and 70 μL was transferred to 4 time points plates (each in triplicate wells). […] The plasma stability was evaluated via the half-life from least-squares fit of the multiple time points based on first-order kinetics.

SMILES: CN[C@@H]1[C@H](O)[C@H](NC)[C@H]2O[C@]3(O)[C@H](O[C@@H]2[C@H]1O)O[C@H](C)C[C@H]3NC(=O)Cc1ccc(OP(=O)(O)O)cn1 [Compound 3408, 6-(2-oxo-2-(((2R,4R,4a5,5aR,6S,7S,8R,9S,9aR,10aS)-4a,7,9-trihydroxy-2-methyl-6,8-bis(methylamino)decahydro-2H-benzo[b]pyrano[2,3-e][1,4]dioxin-4-yl)amino)ethyl)pyridin-3-yl dihydrogen phosphate]
- % remaining ([1]; hour 0): 100%
- % remaining ([1]; hour 1): 103%
- % remaining ([1]; hour 2): 101%
- % remaining ([1]; hour 3): 105%
- % remaining ([1]; hour 4): 104%
- % remaining ([1]; hour 5): 104%
- % remaining ([1]; hour 6): 104%
- time stable in solution ([1]; 10 mg/mL in Plasmalyte A and milli-Q water mixture (50:50)): at least 6 hours
- half-life at 10 µM [2]: < 5 min
